ChEMBL document CHEMBL4304783, “Discovery of a Novel Selective Dual Peroxisome Proliferator-Activated Receptor α/δ Agonist for the Treatment of Primary Biliary Cirrhosis” (ACS Med Chem Lett, 2019)
Calls of active or inactive are those of the source. The calls are words filed in the database; no cut-off is given here.

How the values were obtained:
[1] = target: T1, Peroxisome proliferator-activated receptor alpha (Homo sapiens, UniProt Q07869); test: Agonist activity at PPARalpha (unknown origin) incubated for 3 to 16 hrs by pathhunter nuclear hormone receptor assay
T1 sequence (Q07869 whole entry): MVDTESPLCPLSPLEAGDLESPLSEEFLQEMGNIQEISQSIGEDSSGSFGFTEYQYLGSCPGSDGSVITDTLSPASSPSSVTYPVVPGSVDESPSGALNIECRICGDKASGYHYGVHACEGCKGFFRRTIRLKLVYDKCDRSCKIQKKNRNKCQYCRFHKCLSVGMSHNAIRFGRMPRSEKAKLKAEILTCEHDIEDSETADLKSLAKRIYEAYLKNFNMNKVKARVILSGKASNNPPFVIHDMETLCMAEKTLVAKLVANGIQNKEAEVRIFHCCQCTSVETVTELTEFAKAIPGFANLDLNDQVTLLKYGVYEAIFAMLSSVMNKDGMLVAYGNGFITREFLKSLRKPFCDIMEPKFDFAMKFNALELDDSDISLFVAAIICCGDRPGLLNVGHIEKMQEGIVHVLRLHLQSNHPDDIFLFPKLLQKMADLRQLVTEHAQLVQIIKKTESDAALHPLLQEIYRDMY

[2] = target: T2, Peroxisome proliferator-activated receptor alpha (Homo sapiens) (UniProt Q07869); test: Agonist activity at PPARalpha (unknown origin) incubated for 3 to 16 hrs by pathhunter nuclear hormone receptor assay relative to GW7647; set-up: concentration or dose not given beside the values
T2 sequence (whole entry): T1 sequence (Q07869 whole entry)

[3] = target: T3, Peroxisome proliferator-activated receptor delta (Homo sapiens, UniProt Q03181); test: Agonist activity at PPARbeta (unknown origin) incubated for 3 to 16 hrs by pathhunter nuclear hormone receptor assay
T3 sequence (Q03181 whole entry): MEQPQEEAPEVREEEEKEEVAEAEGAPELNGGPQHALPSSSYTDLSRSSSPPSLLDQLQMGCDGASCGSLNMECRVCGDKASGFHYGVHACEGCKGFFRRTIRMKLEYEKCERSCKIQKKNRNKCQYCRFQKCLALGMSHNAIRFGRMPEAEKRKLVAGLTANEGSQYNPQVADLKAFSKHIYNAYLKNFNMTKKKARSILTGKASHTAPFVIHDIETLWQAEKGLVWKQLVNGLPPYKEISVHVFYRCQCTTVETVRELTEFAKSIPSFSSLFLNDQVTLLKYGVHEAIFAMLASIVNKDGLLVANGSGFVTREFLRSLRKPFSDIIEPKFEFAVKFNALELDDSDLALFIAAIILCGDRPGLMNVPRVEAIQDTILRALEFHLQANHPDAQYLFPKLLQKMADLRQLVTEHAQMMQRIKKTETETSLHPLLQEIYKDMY

[4] = target: T4, Peroxisome proliferator-activated receptor delta (Homo sapiens) (UniProt Q03181); test: Agonist activity at PPARbeta (unknown origin) incubated for 3 to 16 hrs by pathhunter nuclear hormone receptor assay relative to L-165,041
T4 sequence (whole entry): T3 sequence (Q03181 whole entry)

[5] = target: T5, Peroxisome proliferator-activated receptor gamma (Homo sapiens) (UniProt P37231); test: Agonist activity at PPARgamma (unknown origin) incubated for 3 to 16 hrs by pathhunter nuclear hormone receptor assay relative to Troglitazone
T5 sequence (whole entry): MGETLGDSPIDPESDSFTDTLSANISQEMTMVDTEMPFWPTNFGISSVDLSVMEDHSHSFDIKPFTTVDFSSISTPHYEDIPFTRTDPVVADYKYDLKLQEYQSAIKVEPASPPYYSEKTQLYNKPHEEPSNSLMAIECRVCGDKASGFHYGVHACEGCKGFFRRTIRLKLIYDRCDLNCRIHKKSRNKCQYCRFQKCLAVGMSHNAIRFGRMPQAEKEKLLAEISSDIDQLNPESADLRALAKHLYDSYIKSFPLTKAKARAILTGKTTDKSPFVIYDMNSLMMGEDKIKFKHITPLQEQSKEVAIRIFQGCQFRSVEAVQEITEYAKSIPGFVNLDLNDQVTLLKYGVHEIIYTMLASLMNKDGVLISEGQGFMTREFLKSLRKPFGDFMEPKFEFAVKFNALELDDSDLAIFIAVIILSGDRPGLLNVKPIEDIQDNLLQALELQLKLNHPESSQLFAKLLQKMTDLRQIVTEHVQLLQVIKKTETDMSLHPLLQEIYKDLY

[6] = system: Rattus norvegicus; test: Hepatoprotective activity in Sprague-Dawley rat assessed as reduction in ANIT-stimulated total bilirubin level at 30 mg/kg, ig administered for 8 days by biochemical analysis; assay type: functional, organism-based
[7] = system: Rattus norvegicus; test: Hepatoprotective activity in Sprague-Dawley rat assessed as reduction in ANIT-stimulated inflammatory score at 30 mg/kg, ig administered for 8 days by hematoxylin and eosin staining based mopho-metric analysis; assay type: functional, organism-based
[8] = system: Rattus norvegicus; test: Hepatoprotective activity in Sprague-Dawley rat assessed as reduction in ANIT-stimulated fibrosis area at 30 mg/kg, ig administered for 8 days by hematoxylin and eosin staining based mopho-metric analysis; assay type: functional, organism-based
[9] = system: Rattus norvegicus; test: Hepatoprotective activity in Sprague-Dawley rat assessed as reduction in ANIT-stimulated total bilirubin level at 20 mg/kg, ig administered for 8 days by biochemical analysis; assay type: functional, organism-based
[10] = system: Rattus norvegicus; test: Hepatoprotective activity in Sprague-Dawley rat assessed as reduction in ANIT-stimulated inflammatory score at 20 mg/kg, ig administered for 8 days by hematoxylin and eosin staining based mopho-metric analysis; assay type: functional, organism-based
[11] = system: Rattus norvegicus; test: Hepatoprotective activity in Sprague-Dawley rat assessed as reduction in ANIT-stimulated fibrosis area at 20 mg/kg, ig administered for 8 days by hematoxylin and eosin staining based mopho-metric analysis; assay type: functional, organism-based
[12] = target: T6, Peroxisome proliferator-activated receptor gamma (Homo sapiens, UniProt P37231); test: Agonist activity at PPARgamma (unknown origin) incubated for 3 to 16 hrs by pathhunter nuclear hormone receptor assay
T6 sequence (P37231 whole entry): T5 sequence (whole entry)

[13] = species: Homo sapiens; test: Selectivity index, ratio of EC50 of PPARgamma (unknown origin) to EC50 of PPARalpha (unknown origin)
[14] = target: PPAR delta/gamma (Homo sapiens) (UniProt P37231+Q03181); test: Selectivity index, ratio of EC50 of PPARgamma (unknown origin) to EC50 of PPARdelta (unknown origin); assay type: protein assay
[15] = target: T2, Peroxisome proliferator-activated receptor alpha (Homo sapiens); test: Potency index, ratio of EC50 of GFT505 to ratio of EC50 of compound for agonist activity at PPARalpha (unknown origin) incubated for 3 to 16 hrs by pathhunter nuclear hormone receptor assay

Compound: Cc1cc(Cc2noc3c2CCOc2cc(Br)ccc2-3)cc(C)c1OC(C)(C)C(=O)O
- EC50 [1]: 8970 nM
- Activity [2]: 50%

Compound: Cc1cc(Cc2cnoc2-c2ccc(Br)cc2)cc(C)c1OC(C)(C)C(=O)O
- EC50 [1]: 2820 nM
- Activity [2]: 78%

Compound: CCCc1c(OCCCOc2ccc(OCC(=O)O)cc2)ccc(C(C)=O)c1O
- EC50 [3]: 61 nM

Compound: CSc1ccc(C(=O)/C=C/c2cc(C)c(OC(C)(C)C(=O)O)c(C)c2)cc1 [ELAFIBRANOR]
- EC50 [1]: 225 nM
- Activity [2]: 117%
- Activity [4]: 72%
- Activity [5]: 93%
- Activity [6]: Active
- Activity [7]: inactive
- Activity [8]: inactive

Compound: Cc1cc(-c2cc(-c3ccc(Br)cc3)on2)cc(C)c1OC(C)(C)C(=O)O
- EC50 [1]: > 10000 nM
- Activity [2]: 5%

Compound: CC[C@H]1[C@@H](O)[C@@H]2[C@H](CC[C@]3(C)[C@@H]([C@H](C)CCC(=O)O)CC[C@@H]23)[C@@]2(C)CC[C@@H](O)C[C@@H]12
- Activity [9]: Active
- Activity [10]: inactive
- Activity [11]: inactive

Compound: Cc1cc(CCc2cc(-c3ccc(Br)cc3)on2)cc(C)c1OC(C)(C)C(=O)O
- EC50 [1]: 27 nM
- EC50 [3]: 5 nM
- EC50 [12]: 457 nM
- Activity [2]: 134%
- Activity [4]: 73%
- Activity [5]: 78%
- Ratio EC50 [13]: 17
- Ratio EC50 [14]: 91
- Ratio EC50 [15]: 8 to 28

Compound: Cc1cc(Cc2cc(-c3ccccc3)on2)cc(C)c1OC(C)(C)C(=O)O
- EC50 [1]: 385 nM
- Activity [2]: 85%

Compound: Cc1cc(Cc2onc3c2CCOc2cc(Br)ccc2-3)cc(C)c1OC(C)(C)C(=O)O
- EC50 [1]: 3420 nM
- Activity [2]: 85%
